Data from the supplement of paper PMC10307832.

Assays:
Assay in all cases: relative viability (nuclei count vs DMSO), 5 days (fraction); higher = more cells survive
[1] = compound: C/C(=N\NC(=S)N1CCC1)/C2=CC=CC=N2 + Cc1nc(Nc2ncc(C(=O)Nc3c(C)cccc3Cl)s2)cc(N2CCN(CCO)CC2)n1 [Dasatinib] (partner 0.075 µM)
How it was run: (§1)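 Relative viability is defined as nuclei in treated wells over nuclei in vehicle wells. Duplicate plates were run and medians reported. Lung cancer cell lines in 1536-well plates were dosed by pin tool one day after seeding, with one drug or with a fixed anchor-drug dose plus five library-drug doses (not always all listed) in √10 steps, and nuclei were counted after 5 days.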

[2] = compound: C/C(=N\NC(=S)N1CCC1)/C2=CC=CC=N2 + CS(=O)(=O)N1CCN(Cc2cc3nc(-c4cccc5[nH]ncc45)nc(N4CCOCC4)c3s2)CC1 [Pictilisib] (partner 1 µM)
How it was run: as §1

[3] = compound: C/C(=N\NC(=S)N1CCC1)/C2=CC=CC=N2 + C[C@@H](Oc1cc(-c2cnn(C3CCNCC3)c2)cnc1N)c1c(Cl)ccc(F)c1Cl [Crizotinib] (partner 1 µM)
How it was run: as §1

[4] = compound: C/C(=N\NC(=S)N1CCC1)/C2=CC=CC=N2 + O=C(CCCCCCC(=O)Nc1ccccc1)NO [Vorinostat] (partner 1 µM)
How it was run: as §1

Cell Line	relative viability ([1]; first compound 0.05 µM)	relative viability ([1]; first compound 0.1581 µM)	relative viability ([1]; first compound 0.5 µM)	relative viability ([1]; first compound 1.581 µM)	relative viability ([1]; first compound 5 µM)	relative viability ([2]; first compound 0.05 µM)	relative viability ([2]; first compound 0.1581 µM)	relative viability ([2]; first compound 0.5 µM)	relative viability ([2]; first compound 1.581 µM)	relative viability ([2]; first compound 5 µM)	relative viability ([3]; first compound 0.05 µM)	relative viability ([3]; first compound 0.1581 µM)	relative viability ([3]; first compound 0.5 µM)	relative viability ([3]; first compound 1.581 µM)	relative viability ([3]; first compound 5 µM)	relative viability ([4]; first compound 0.05 µM)	relative viability ([4]; first compound 0.1581 µM)	relative viability ([4]; first compound 0.5 µM)	relative viability ([4]; first compound 1.581 µM)	relative viability ([4]; first compound 5 µM)
201T	0.324	0.29	0.282	0.232	0.216	0.438	0.494	0.444	0.389	0.344	0.773	0.983	0.485	0.477	0.321	0.351	0.349	0.315	0.301	0.281
A549						0.0548	0.0774	0.0703	0.0543	0.0578	0.0427	0.0518	0.0568	0.044	0.0637					
A-427	0.144	0.124	0.132	0.0986	0.117	0.109	0.142	0.129	0.116	0.125	0.267	0.445	0.0997	0.0835	0.129	0.187	0.198	0.171	0.158	0.186
ABC-1	0.213	0.306	0.195	0.193	0.225	0.305	0.334	0.24	0.222	0.269	0.23	0.189	0.2	0.172	0.142	0.268	0.339	0.308	0.275	0.302
BEN	0.142	0.187	0.177	0.171	0.153	0.164	0.162	0.156	0.186	0.176	0.193	0.182	0.244	0.177	0.169	0.233	0.293	0.296	0.281	0.3
CAL-12T	0.0937	0.0896	0.054	0.0962	0.0819	0.168	0.198	0.138	0.167	0.178	0.106	0.0871	0.12	0.103	0.0896	0.0882	0.112	0.127	0.101	0.114
COR-L23	0.102	0.095	0.0719	0.0707	0.0937	0.134	0.0963	0.103	0.0639	0.0663	0.11	0.119	0.12	0.0692	0.0727	0.11	0.099	0.0957	0.0832	0.0963
COR-L 105	0.178	0.254	0.243	0.176	0.185	0.318	0.346	0.325	0.279	0.254	0.231	0.252	0.224	0.205	0.256	0.345	0.346	0.345	0.304	0.291
Calu-6						0.109	0.139	0.152	0.141	0.132	0.117	0.136	0.128	0.109	0.102					
ChaGo-K-1	0.137	0.178	0.17	0.131	0.168	0.233	0.392	0.232	0.237	0.293	0.34	0.339	0.258	0.312	0.279	0.164	0.159	0.155	0.143	0.165
EKVX	0.186	0.174	0.164	0.172	0.192	0.113	0.127	0.115	0.107	0.124	0.142	0.159	0.121	0.137	0.159	0.196	0.223	0.186	0.205	0.221
EMC-BAC-2	0.149	0.169	0.175	0.129	0.186	0.0912	0.166	0.173	0.193	0.19	0.365	0.336	0.16	0.153	0.142	0.193	0.199	0.134	0.153	0.135
EPLC-272H	0.086	0.079	0.117	0.0523	0.0578	0.159	0.159	0.149	0.12	0.138	0.0969	0.187	0.121	0.126	0.171	0.0931	0.159	0.149	0.0509	0.107
H3255	0.355	0.347	0.258	0.225	0.392	0.244	0.23	0.192	0.222	0.203	0.289	0.309	0.288	0.222	0.189	0.334	0.288	0.179	0.274	0.289
HARA	0.0909	0.0673	0.0699	0.063	0.083	0.0923	0.0752	0.0784	0.0856	0.0671	0.361	0.227	0.152	0.115	0.0965	0.0948	0.381	0.0375	0.076	0.0809
HCC-15	0.0569	0.0708	0.0679	0.0571	0.0669	0.0704	0.087	0.104	0.0822	0.0856	0.21	0.412	0.0685	0.073	0.0642	0.204	0.275	0.145	0.139	0.116
HCC-44						0.341	0.142	0.125	0.149	0.217	0.783	0.208	0.186	0.209	0.229	0.894	1.02	0.51	0.471	0.411
HCC-78	0.264	0.256	0.268	0.181	0.157	0.184	0.176	0.119	0.163	0.153	0.338	0.251	0.237	0.142	0.167	0.427	0.414	0.338	0.23	0.231
